Data published in patent US20260022143A1, “Cyclic Peptide Inhibitors of IL-23” (JANSSEN PHARMACEUTICA NV, priority 2022, published 2026).
Starred links: 1 amine or outer side, 2 acyl side, 3 side chain; linkers in the order of their positions; H or OH if unused. Positions of bridges follow the written chain, without caps; N, C: chain ends. Non-standard residues stand in square brackets, D forms with d. Residues, ends and D or L forms follow the SMILES beside them. *: point of attachment. X33 = C[N+](C)(C)CCCCc1cn(-c2ccc(C[C@H](N[*:1])C(=O)[*:2])cc2)nn1; Me3N+(CH2)2O(CH2)2O(CH2)2CO = C[N+](C)(C)CCOCCOCCC(=O)*; X67 = COCc1cn(-c2ccc(C[C@H](N[*:1])C(=O)[*:2])cc2)nn1; Trp(7-Me) = Cc1cccc2c(C[C@H](N)C(=O)O)c[nH]c12; 2Nal = N[C@@H](Cc1ccc2ccccc2c1)C(=O)O; X74 = C[N+]1(CCOCCOCC*)CCC(F)(F)CC1; 3Pal = N[C@@H](Cc1cccnc1)C(=O)O; Lys(Me) = CNCCCC[C@H](N)C(=O)O; Pen = CC(C)(S)[C@H](N)C(=O)O; X70 = C[N+](C)(C)CCO/N=C\C*; X85 = C[N+](C)(C)CCO/N=C/C*; X8 = C[N+](C)(C)CCCCCCCC*; Thp = NC1(C(=O)O)CCOCC1; X3 = C[N+](C)(C)CCCCC*; Sar = CNCC(=O)O

Test: Exposed Polar Surface Area (EPSA)
Type: physicochemical
Conditions: SFC on Chirex 3014 column; sample 1 mM DMSO stock; read-out: EPSA
Method in brief: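 SFC retention on a Chirex 3014 (S)-valine/(R)-1-(α-naphthyl)ethylamine column, 35 °C, CO2 with MeOH (20 mM ammonium formate) gradient 5–60% at 20%/min, 14 MPa outlet. Retention times converted to EPSA (Å^2) via linear calibration with 8 standards; samples from 1 mM DMSO stock, run in duplicate.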

SMILES	EPSA [A^2]
CC(=O)N(C)CCCC[C@@H]1NC(=O)[C@H](Cc2c[nH]c3c(C)cccc23)NC(=O)[C@H]([C@@H](C)O)NC(=O)[C@H](CC(=O)N(C)C)NC(=O)[C@@H](NC(=O)CCOCCOCC[N+](C)(C)C)C(C)(C)SSC(C)(C)[C@@H](C(=O)N[C@@H](Cc2ccc(OCCCCCCCC[N+](C)(C)C)cc2)C(=O)N[C@@H](Cc2ccc3ccccc3c2)C(=O)NC2(C(=O)N[C@@H](CCCCN(C)C(C)=O)C(=O)N[C@@H](CC(N)=O)C(=O)N[C@@H](Cc3cccnc3)C(=O)N(C)CC(=O)N(C)C)CCOCC2)NC1=O [compound 295, cPEG3aCO-Pen(3)-N(N(Me)2)-T-7MeW-K(NMeAc)-Pen(3)-TMA8F-2Nal-THP-K(NMeAc)-N-3Pya-Sar-CON(Me)2] ({Me3N+(CH2)2O(CH2)2O(CH2)2CO}-[Pen]D(NMe2)T[Trp(7-Me)][Lys(Me)](Ac)[Pen]Y(X8)[2Nal][Thp][Lys(Me)](Ac)N[3Pal][Sar]-NMe2; disulfide 1-6)	150
CC(=O)N(C)CCCC[C@@H]1NC(=O)[C@H](Cc2c[nH]c3c(C)cccc23)NC(=O)[C@H]([C@@H](C)O)NC(=O)[C@H](CC(=O)N(C)C)NC(=O)[C@@H](NC(=O)CCOCCOCC[N+](C)(C)C)C(C)(C)SSC(C)(C)[C@@H](C(=O)N[C@@H](Cc2ccc(OCCOCCOCC[N+]3(C)CCC(F)(F)CC3)cc2)C(=O)N[C@@H](Cc2ccc3ccccc3c2)C(=O)NC2(C(=O)N[C@@H](CCCCN(C)C(C)=O)C(=O)N[C@@H](CC(N)=O)C(=O)N[C@@H](Cc3cccnc3)C(=O)N(C)CC(=O)N(C)C)CCOCC2)NC1=O [compound 298, cPEG3aCO-Pen(3)-N(N(Me)2)-T-7MeW-K(NMeAc)-Pen(3)-dFPPEG3F-2Nal-THP-K(NMeAc)-N-3Pya-Sar-CON(Me)2] ({Me3N+(CH2)2O(CH2)2O(CH2)2CO}-[Pen]D(NMe2)T[Trp(7-Me)][Lys(Me)](Ac)[Pen]Y(X74)[2Nal][Thp][Lys(Me)](Ac)N[3Pal][Sar]-NMe2; disulfide 1-6)	149
CC(=O)N(C)CCCC[C@@H]1NC(=O)[C@H](Cc2c[nH]c3c(C)cccc23)NC(=O)[C@H]([C@@H](C)O)NC(=O)[C@H](CC(=O)N(C)C)NC(=O)[C@@H](NC(=O)CCOCCOCC[N+](C)(C)C)C(C)(C)SSC(C)(C)[C@@H](C(=O)N[C@@H](Cc2ccc(-n3cc(CCCC[N+](C)(C)C)nn3)cc2)C(=O)N[C@@H](Cc2ccc3ccccc3c2)C(=O)NC2(C(=O)N[C@@H](CCCCN(C)C(C)=O)C(=O)N[C@@H](CC(N)=O)C(=O)N[C@@H](Cc3cccnc3)C(=O)N(C)CC(=O)N(C)C)CCOCC2)NC1=O [compound 302, cPEG3aCO-Pen(3)-N(N(Me)2)-T-7MeW-K(NMeAc)-Pen(3)-F(4TzlTMA4)-] ({Me3N+(CH2)2O(CH2)2O(CH2)2CO}-[Pen]D(NMe2)T[Trp(7-Me)][Lys(Me)](Ac)[Pen][X33][2Nal][Thp][Lys(Me)](Ac)N[3Pal][Sar]-NMe2; disulfide 1-6)	155
COCc1cn(-c2ccc(C[C@H](NC(=O)[C@H]3NC(=O)[C@H](CCCCN(C)C(C)=O)NC(=O)[C@H](Cc4c[nH]c5c(C)cccc45)NC(=O)[C@H]([C@@H](C)O)NC(=O)[C@H](CC(=O)N(C)C)NC(=O)[C@@H](NC(=O)CCOCCOCC[N+](C)(C)C)C(C)(C)SSC3(C)C)C(=O)N[C@@H](Cc3ccc4ccccc4c3)C(=O)NC3(C(=O)N[C@@H](CCCCN(C)C(C)=O)C(=O)N[C@@H](CC(N)=O)C(=O)N[C@@H](Cc4cccnc4)C(=O)N(C)CC(=O)N(C)C)CCOCC3)cc2)nn1 [compound 303, cPEG3aCO-Pen(3)-N(N(Me)2)-T-7MeW-K(NMeAc)-Pen(3)-F(4TzlMME)-2Nal-THP-K(NMeAc)-N-3Pya-Sar-CON(Me)2] ({Me3N+(CH2)2O(CH2)2O(CH2)2CO}-[Pen]D(NMe2)T[Trp(7-Me)][Lys(Me)](Ac)[Pen][X67][2Nal][Thp][Lys(Me)](Ac)N[3Pal][Sar]-NMe2; disulfide 1-6)	152
CC(=O)N(C)CCCC[C@@H]1NC(=O)[C@H](Cc2c[nH]c3c(C)cccc23)NC(=O)[C@H]([C@@H](C)O)NC(=O)[C@H](CC(=O)N(C)C)NC(=O)[C@@H](NC(=O)CCOCCOCC[N+](C)(C)C)C(C)(C)SSC(C)(C)[C@@H](C(=O)N[C@@H](Cc2ccc(OC/C=N/OCC[N+](C)(C)C)cc2)C(=O)N[C@@H](Cc2ccc3ccccc3c2)C(=O)NC2(C(=O)N[C@@H](CCCCN(C)C(C)=O)C(=O)N[C@@H](CC(N)=O)C(=O)N[C@@H](Cc3cccnc3)C(=O)N(C)CC(=O)N(C)C)CCOCC2)NC1=O [compound 305, cPEG3aCO-Pen(3)-N(N(Me)2)-T-7MeW-K(NMeAc)-Pen(3)-Y(OEOXlMECh)-2Nal-THP-K(NMeAc)-N-3Pya-Sar-CON(Me)2] ({Me3N+(CH2)2O(CH2)2O(CH2)2CO}-[Pen]D(NMe2)T[Trp(7-Me)][Lys(Me)](Ac)[Pen]Y(X85)[2Nal][Thp][Lys(Me)](Ac)N[3Pal][Sar]-NMe2; disulfide 1-6 (inferred))	153

Continued, values first:

EPSA [A^2]	SMILES
153	CC(=O)N(C)CCCC[C@@H]1NC(=O)[C@H](Cc2c[nH]c3c(C)cccc23)NC(=O)[C@H]([C@@H](C)O)NC(=O)[C@H](CC(=O)N(C)C)NC(=O)[C@@H](NC(=O)CCOCCOCC[N+](C)(C)C)C(C)(C)SSC(C)(C)[C@@H](C(=O)N[C@@H](Cc2ccc(OC/C=N\OCC[N+](C)(C)C)cc2)C(=O)N[C@@H](Cc2ccc3ccccc3c2)C(=O)NC2(C(=O)N[C@@H](CCCCN(C)C(C)=O)C(=O)N[C@@H](CC(N)=O)C(=O)N[C@@H](Cc3cccnc3)C(=O)N(C)CC(=O)N(C)C)CCOCC2)NC1=O [compound 306, cPEG3aCO-Pen(3)-N(N(Me)2)-T-7MeW-K(NMeAc)-Pen(3)-Y(OZOXlMECh)-2Nal-THP-K(NMeAc)-N-3Pya-Sar-CON(Me)2] ({Me3N+(CH2)2O(CH2)2O(CH2)2CO}-[Pen]D(NMe2)T[Trp(7-Me)][Lys(Me)](Ac)[Pen]Y(X70)[2Nal][Thp][Lys(Me)](Ac)N[3Pal][Sar]-NMe2; disulfide 1-6)
152	CC(=O)N(C)CCCC[C@@H]1NC(=O)[C@H](Cc2c[nH]c3c(C)cccc23)NC(=O)[C@H]([C@@H](C)O)NC(=O)[C@H](CC(=O)N(C)C)NC(=O)[C@@H](NC(=O)CCOCCOCC[N+](C)(C)C)C(C)(C)SSC(C)(C)[C@@H](C(=O)N[C@@H](Cc2ccc(OCCCCC[N+](C)(C)C)cc2)C(=O)N[C@@H](Cc2ccc3ccccc3c2)C(=O)NC2(C(=O)N[C@@H](CCC(=O)N(C)C)C(=O)N[C@@H](CC(N)=O)C(=O)N[C@@H](Cc3cccnc3)C(=O)N(C)CC(=O)N(C)C)CCOCC2)NC1=O [compound 310, cPEG3aCO-Pen(3)-N(N(Me)2)-T-7MeW-K(NMeAC)-Pen(3)-TMAPF-2Nal-THP-Q(N(Me)2)-N-3Pya-Sar-CON(Me)2] ({Me3N+(CH2)2O(CH2)2O(CH2)2CO}-[Pen]D(NMe2)T[Trp(7-Me)][Lys(Me)](Ac)[Pen]Y(X3)[2Nal][Thp]E(NMe2)N[3Pal][Sar]-NMe2; disulfide 1-6)
151	CC(=O)N(C)CCCC[C@H](NC(=O)C1(NC(=O)[C@H](Cc2ccc3ccccc3c2)NC(=O)[C@H](Cc2ccc(OCCCCC[N+](C)(C)C)cc2)NC(=O)[C@H]2NC(=O)[C@H](CCC(=O)N(C)C)NC(=O)[C@H](Cc3c[nH]c4c(C)cccc34)NC(=O)[C@H]([C@@H](C)O)NC(=O)[C@H](CC(=O)N(C)C)NC(=O)[C@@H](NC(=O)CCOCCOCC[N+](C)(C)C)C(C)(C)SSC2(C)C)CCOCC1)C(=O)N[C@@H](CC(N)=O)C(=O)N[C@@H](Cc1cccnc1)C(=O)N(C)CC(=O)N(C)C [compound 312, cPEG3aCO-Pen(3)-N(N(Me)2)-T-7MeW-Q(N(Me)2)-Pen(3)-TMAPF-2Nal-THP-K(NMeAC)-N-3Pya-Sar-CON(Me)2] ({Me3N+(CH2)2O(CH2)2O(CH2)2CO}-[Pen]D(NMe2)T[Trp(7-Me)]E(NMe2)[Pen]Y(X3)[2Nal][Thp][Lys(Me)](Ac)N[3Pal][Sar]-NMe2; disulfide 1-6)
